System: 616215-338-R-J1-PDC complex spheroid viability
Assay: Anticancer human tumor 616215-338-R-J1-PDC patient-derived colon adenocarcinoma cell line growth inhibition [RAS]
Conditions: for IC50: curve of first compound; for viability, T/C: stronger effect = lower value
In short: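 Tumour cells grown as complex spheroids with HUVEC endothelial cells and mesenchymal stem cells, treated with RAS pathway inhibitor combinations. Each agent spans half-log steps from near clinical Cmax, or 10 microM where Cmax is unknown.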

[1] = second compound 0.00316 µM, first compound 0.0316 µM
[2] = second compound 0.00316 µM, first compound 0.1 µM
[3] = second compound 0.00316 µM, first compound 0.316 µM
[4] = second compound 0.00316 µM, first compound 1 µM
[5] = second compound 0.00316 µM, first compound 3.16 µM
[6] = second compound 0.00316 µM, first compound 10 µM
[7] = second compound 0.01 µM, first compound 0.0316 µM
[8] = second compound 0.01 µM, first compound 0.1 µM
[9] = second compound 0.01 µM, first compound 0.316 µM
[10] = second compound 0.01 µM, first compound 1 µM
[11] = second compound 0.01 µM, first compound 3.16 µM
[12] = second compound 0.01 µM, first compound 10 µM
[13] = second compound 0.0316 µM, first compound 0.0316 µM
[14] = second compound 0.0316 µM, first compound 0.1 µM
[15] = second compound 0.0316 µM, first compound 0.316 µM
[16] = second compound 0.0316 µM, first compound 1 µM
[17] = second compound 0.0316 µM, first compound 3.16 µM
[18] = second compound 0.0316 µM, first compound 10 µM
[19] = second compound 0.1 µM, first compound 0.0316 µM
[20] = second compound 0.1 µM, first compound 0.1 µM
[21] = second compound 0.1 µM, first compound 0.316 µM
[22] = second compound 0.1 µM, first compound 1 µM
[23] = second compound 0.1 µM, first compound 3.16 µM
[24] = second compound 0.1 µM, first compound 10 µM
[25] = second compound 0.316 µM, first compound 0.0316 µM
[26] = second compound 0.316 µM, first compound 0.1 µM
[27] = second compound 0.316 µM, first compound 0.316 µM
[28] = second compound 0.316 µM, first compound 1 µM
[29] = second compound 0.316 µM, first compound 3.16 µM
[30] = second compound 0.316 µM, first compound 10 µM
[31] = second compound 1 µM, first compound 0.0316 µM
[32] = second compound 1 µM, first compound 0.1 µM
[33] = second compound 1 µM, first compound 0.316 µM
[34] = second compound 1 µM, first compound 1 µM
[35] = second compound 1 µM, first compound 3.16 µM
[36] = second compound 1 µM, first compound 10 µM
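Note: spheroids exposed to agents for seven days before viability readout.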
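Throughout, for viability, T/C: 100% = DMSO vehicle control viability.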

SMILES: CC1(O)CCCC1n1c(=O)c(C(F)F)cc2cnc(NC3CCN(S(C)(=O)=O)CC3)nc21 (stereo unspecified) + C=CC(=O)N1CCN(c2nc(OCC3CCCN3C)nc3c(F)c(-c4nc(N)cc(C)c4C(F)(F)F)c(Cl)cc23)C(C)C1
- IC50 (second compound 0.00316 µM): 295 nM
- IC50 (second compound 0.01 µM): 1340 nM
- IC50 (second compound 0.0316 µM): 1100 nM
- IC50 (second compound 0.1 µM): 1130 nM
- IC50 (second compound 0.316 µM): 1060 nM
- IC50 (second compound 1 µM): 1180 nM
- viability, T/C [1]: 115%
- viability, T/C [2]: 125%
- viability, T/C [3]: 45.5%
- viability, T/C [4]: 52.3%
- viability, T/C [5]: 46.1%
- viability, T/C [6]: 3.51%
- viability, T/C [7]: 124%
- viability, T/C [8]: 115%
- viability, T/C [9]: 49.8%
- viability, T/C [10]: 60.2%
- viability, T/C [11]: 49.4%
- viability, T/C [12]: 3.84%
- viability, T/C [13]: 113%
- viability, T/C [14]: 113%
- viability, T/C [15]: 50.3%
- viability, T/C [16]: 51.6%
- viability, T/C [17]: 48.7%
- viability, T/C [18]: 1.4%
- viability, T/C [19]: 111%
- viability, T/C [20]: 114%
- viability, T/C [21]: 58%
- viability, T/C [22]: 55.4%
- viability, T/C [23]: 39.6%
- viability, T/C [24]: 1.02%
- viability, T/C [25]: 117%
- viability, T/C [26]: 107%
- viability, T/C [27]: 54.8%
- viability, T/C [28]: 49%
- viability, T/C [29]: 44.5%
- viability, T/C [30]: 1.06%
- viability, T/C [31]: 117%
- viability, T/C [32]: 108%
- viability, T/C [33]: 58.1%
- viability, T/C [34]: 53.2%
- viability, T/C [35]: 46.3%
- viability, T/C [36]: 2.1%

SMILES: CCC(CC)c1cc(NC2CCC(N)C2)n2nccc2n1 (stereo unspecified) + C=CC(=O)N1CCN(c2nc(OCC3CCCN3C)nc3c(F)c(-c4nc(N)cc(C)c4C(F)(F)F)c(Cl)cc23)C(C)C1
- IC50 (second compound 0.00316 µM): 1770 nM
- IC50 (second compound 0.01 µM): 1800 nM
- IC50 (second compound 0.0316 µM): 1790 nM
- IC50 (second compound 0.1 µM): 1780 nM
- IC50 (second compound 0.316 µM): 1800 nM
- IC50 (second compound 1 µM): 1860 nM
- viability, T/C [1]: 101%
- viability, T/C [2]: 97.5%
- viability, T/C [3]: 92.6%
- viability, T/C [4]: 97.8%
- viability, T/C [5]: 0.65%
- viability, T/C [6]: 2.31%
- viability, T/C [7]: 100%
- viability, T/C [8]: 102%
- viability, T/C [9]: 96.6%
- viability, T/C [10]: 102%
- viability, T/C [11]: 0.87%
- viability, T/C [12]: 2.95%
- viability, T/C [13]: 108%
- viability, T/C [14]: 100%
- viability, T/C [15]: 90.2%
- viability, T/C [16]: 105%
- viability, T/C [17]: 0.34%
- viability, T/C [18]: 0.25%
- viability, T/C [19]: 103%
- viability, T/C [20]: 95.2%
- viability, T/C [21]: 96.9%
- viability, T/C [22]: 104%
- viability, T/C [23]: 0.59%
- viability, T/C [24]: 0.27%
- viability, T/C [25]: 107%
- viability, T/C [26]: 90.1%
- viability, T/C [27]: 101%
- viability, T/C [28]: 105%
- viability, T/C [29]: 1.41%
- viability, T/C [30]: 1.72%
- viability, T/C [31]: 106%
- viability, T/C [32]: 106%
- viability, T/C [33]: 96.5%
- viability, T/C [34]: 114%
- viability, T/C [35]: 2.76%
- viability, T/C [36]: 2.4%

SMILES: CCN1CCN(Cc2ccc(Nc3ncc(F)c(-c4cc(F)c5nc(C)n(C(C)C)c5c4)n3)nc2)CC1 + C=CC(=O)N1CCN(c2nc(OCC3CCCN3C)nc3c(F)c(-c4nc(N)cc(C)c4C(F)(F)F)c(Cl)cc23)C(C)C1
- IC50 (second compound 0.00316 µM): > 1000 nM
- IC50 (second compound 0.01 µM): > 1000 nM
- IC50 (second compound 0.0316 µM): > 1000 nM
- IC50 (second compound 0.1 µM): > 1000 nM
- IC50 (second compound 0.316 µM): > 1000 nM
- IC50 (second compound 1 µM): > 1000 nM
- viability, T/C (second compound 0.00316 µM, first compound 0.00316 µM): 110%
- viability, T/C (second compound 0.00316 µM, first compound 0.01 µM): 110%
- viability, T/C [1]: 121%
- viability, T/C [2]: 118%
- viability, T/C [3]: 150%
- viability, T/C [4]: 65%
- viability, T/C (second compound 0.01 µM, first compound 0.00316 µM): 112%
- viability, T/C (second compound 0.01 µM, first compound 0.01 µM): 120%
- viability, T/C [7]: 114%
- viability, T/C [8]: 123%
- viability, T/C [9]: 145%
- viability, T/C [10]: 56.2%
- viability, T/C (second compound 0.0316 µM, first compound 0.00316 µM): 113%
- viability, T/C (second compound 0.0316 µM, first compound 0.01 µM): 124%
- viability, T/C [13]: 116%
- viability, T/C [14]: 119%
- viability, T/C [15]: 143%
- viability, T/C [16]: 71.4%
- viability, T/C (second compound 0.1 µM, first compound 0.00316 µM): 102%
- viability, T/C (second compound 0.1 µM, first compound 0.01 µM): 102%
- viability, T/C [19]: 118%
- viability, T/C [20]: 117%
- viability, T/C [21]: 141%
- viability, T/C [22]: 64.2%
- viability, T/C (second compound 0.316 µM, first compound 0.00316 µM): 114%
- viability, T/C (second compound 0.316 µM, first compound 0.01 µM): 109%
- viability, T/C [25]: 113%
- viability, T/C [26]: 131%
- viability, T/C [27]: 131%
- viability, T/C [28]: 59.3%
- viability, T/C (second compound 1 µM, first compound 0.00316 µM): 117%
- viability, T/C (second compound 1 µM, first compound 0.01 µM): 116%
- viability, T/C [31]: 109%
- viability, T/C [32]: 120%
- viability, T/C [33]: 154%
- viability, T/C [34]: 67.7%

Reference: PubChem BioAssay AID2060898 (Molecular Pharmacology Branch, DTP, NCI, 2025)
